Test results: article PMC2847917 (The Journal of General Physiology, 2010)

Legend:
[1] = molecular target: T1, P2X4 receptor (Mus musculus, UniProt Q9JJX6); test: cell-based
T1 sequence (Q9JJX6 1-388): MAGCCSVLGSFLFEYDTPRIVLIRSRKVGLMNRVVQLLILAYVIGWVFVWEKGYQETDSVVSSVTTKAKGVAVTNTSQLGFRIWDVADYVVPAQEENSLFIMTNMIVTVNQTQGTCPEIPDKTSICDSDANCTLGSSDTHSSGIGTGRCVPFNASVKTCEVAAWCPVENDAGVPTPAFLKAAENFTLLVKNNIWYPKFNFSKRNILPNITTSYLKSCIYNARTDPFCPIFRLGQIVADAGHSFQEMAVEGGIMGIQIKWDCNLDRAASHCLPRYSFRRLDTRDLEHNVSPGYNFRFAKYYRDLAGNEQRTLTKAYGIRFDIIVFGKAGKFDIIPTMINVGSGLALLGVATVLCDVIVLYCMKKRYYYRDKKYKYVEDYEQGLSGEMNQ

[2] = molecular target: T1, P2X4 receptor; test: whole-cell voltage clamp, agonist-evoked inward current; assay type: cell-based

EC50 [1] [µM] | whole-cell voltage clamp, agonist-evoked inward current (partial agonist) [2] | SMILES
33 |  | Nc1ncnc2c1ncn2[C@@H]1O[C@H](COP(=O)(O)OP(=O)(O)OP(=O)(O)O)[C@@H](O)[C@H]1O [ATP]
 | α,β-Methylene ATP was a partial agonist | Nc1ncnc2c1ncn2[C@@H]1O[C@H](COP(=O)(O)CP(=O)(O)OP(=O)(O)O)[C@@H](O)[C@H]1O [α,β-Methylene ATP]
